Assay results as given in patent US9133201B2, “Inhibitors of Bruton's tyrosine kinase” (Pharmacyclics, Inc., priority 2006, dated 2015).

Experiments:
DHL-6 cells = experiment: Growth of DHL-6 cells (Alamar Blue); type: cell-based; conditions: 24 h or 48 h treatment
Btk = Btk (Homo sapiens (Human), UniProt Q06187); experiment: Btk acellular kinase assay (TR-FRET)
Sequence of Btk (Q06187 whole entry): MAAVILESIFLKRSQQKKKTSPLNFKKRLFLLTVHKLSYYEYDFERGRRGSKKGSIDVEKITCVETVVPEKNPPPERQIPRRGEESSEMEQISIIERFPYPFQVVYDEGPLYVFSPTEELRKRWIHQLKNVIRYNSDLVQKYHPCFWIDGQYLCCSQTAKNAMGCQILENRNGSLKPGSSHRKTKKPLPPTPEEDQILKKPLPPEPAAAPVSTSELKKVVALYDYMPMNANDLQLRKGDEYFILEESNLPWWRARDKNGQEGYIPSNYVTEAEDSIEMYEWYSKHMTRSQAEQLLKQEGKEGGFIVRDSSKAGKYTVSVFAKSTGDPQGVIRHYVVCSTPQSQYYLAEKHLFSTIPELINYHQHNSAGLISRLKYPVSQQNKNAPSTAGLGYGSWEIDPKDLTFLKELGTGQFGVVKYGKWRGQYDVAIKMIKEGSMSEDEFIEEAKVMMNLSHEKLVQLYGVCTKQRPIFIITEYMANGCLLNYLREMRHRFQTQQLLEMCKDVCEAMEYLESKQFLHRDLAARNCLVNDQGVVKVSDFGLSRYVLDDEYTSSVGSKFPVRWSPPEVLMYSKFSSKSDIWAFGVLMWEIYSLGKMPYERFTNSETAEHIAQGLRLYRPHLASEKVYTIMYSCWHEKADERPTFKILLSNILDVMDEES

Row | SMILES | growth of DHL-6 cells (DHL-6 cells) | IC50 (Btk; read-out: Btk IC50, acellular TR-FRET kinase assay, [ATP]=Km) [nM] | fold less potent than compound 4 (Btk; Btk potency) [fold]
1 | CN(C)C/C=C/C(=O)N1CCC[C@@H](n2nc(-c3ccc(Oc4ccccc4)cc3)c3c(N)ncnc32)C1 [Compound 15, (E)-1-(3-(4-amino-3-(4-phenoxyphenyl)-1H-pyrazolo[3,4-d]pyrimidin-1-yl)piperidin-1-yl)-4-(dimethylamino)but-2-en-1-one] | inhibit growth | 2.5 | –
2 | C/C=C/C(=O)N1CCCC(n2nc(-c3ccc(Oc4ccccc4)cc3)c3c(N)ncnc32)C1 (stereo not drawn) [Compound 5, (E)-1-(3-(4-amino-3-(4-phenoxyphenyl)-1H-pyrazolo[3,4-d]pyrimidin-1-yl)piperidin-1-yl)but-2-en-1-one] | – | – | 28
